From ChEMBL document CHEMBL1201862, “PubChem BioAssay data set” (2004)
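Exposure lasted 48 hours, with cells grown in 96-well plates and compounds tested at five concentrations. GI50 marks 50% less growth.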 Calls of active or inactive are those of the source. Cut-off read from the data, not from the text of the source: active = GI50 up to about 1.1 µM and inactive = higher. Where a SMILES comes first, the peptide text is derived from it. [ ]: non-standard residue; d: D form. 2Nal = N[CH](Cc1ccc2ccccc2c1)C(=O)O

What was measured:
Test in all cases: inhibition of tumour cell growth, NCI panel, 48 h
[1] = test system: KM-20L2
[2] = test system: HL-60
[3] = test system: NCI-H23
[4] = test system: HOP-62
[5] = test system: CAKI-1
[6] = test system: KM12
[7] = test system: OVCAR-5
[8] = test system: RXF 393
[9] = test system: RPMI-8226
[10] = test system: IGROV-1
[11] = test system: SNB-19
[12] = test system: EKVX
[13] = test system: U-251
[14] = test system: OVCAR-3
[15] = test system: SF-268
[16] = test system: A549
[17] = test system: T47D
[18] = test system: NCI/ADR-RES
[19] = test system: MDA-MB-435
[20] = test system: BT-549

Structure (SMILES) | GI50 [1] | GI50 [2] | GI50 [3] | GI50 [4] | GI50 [5] | GI50 [6] | GI50 [7] | GI50 [8] | GI50 [9] | GI50 [10] | GI50 [11] | GI50 [12] | GI50 [13] | GI50 [14] | GI50 [15] | GI50 [16] | GI50 [17] | GI50 [18] | GI50 [19] | GI50 [20]
COc1cc(C2C(C(=O)Nc3ccc(Cl)c(Cl)c3)=C(C)NC(C)=C2C(=O)Nc2ccc(Cl)c(Cl)c2)ccc1O | 19.8 µM (inactive) | 4.38 µM (inactive) | 12.5 µM (inactive) | 11 µM (inactive) | 14 µM (inactive) | 11.7 µM (inactive) | 19.4 µM (inactive) | 2.64 µM (inactive) | 3.89 µM (inactive) | 14.2 µM (inactive) | 12.3 µM (inactive) | 10.3 µM (inactive) | 13.9 µM (inactive) | 9.82 µM (inactive) | 11.7 µM (inactive) | 12.8 µM (inactive) | – | – | – | –
CN1c2ccccc2N(C(=O)c2ccccc2)C(CC(=O)O)c2cccn21 (configuration not stated) | > 100 µM (inactive) | > 100 µM (inactive) | > 100 µM (inactive) | > 100 µM (inactive) | > 100 µM (inactive) | > 100 µM (inactive) | > 100 µM (inactive) | 43.1 µM (inactive) | > 100 µM (inactive) | > 100 µM (inactive) | > 100 µM (inactive) | > 100 µM (inactive) | > 100 µM (inactive) | > 100 µM (inactive) | > 100 µM (inactive) | > 100 µM (inactive) | – | – | – | –
COc1ccc2nccc(NCCCN3CCN(CCCNc4ccnc5ccc(OC)cc45)CC3)c2c1 | 0.703 µM (active) | 0.0953 µM (active) | 0.51 µM (active) | 0.966 µM (active) | 3.69 µM (inactive) | 0.357 µM (active) | 0.826 µM (active) | 1.32 µM (inactive) | 0.264 µM (active) | 0.283 µM (active) | 0.927 µM (active) | 1.34 µM (inactive) | 0.232 µM (active) | 1.22 µM (inactive) | 0.432 µM (active) | 0.296 µM (active) | 0.887 µM (active) | 18.2 µM (inactive) | 0.427 µM (active) | 4.27 µM (inactive)
CC(=O)O[C@]12CCC[C@H]1C1(O)C(O)CCC[C@H]12 (some centres not stated) | > 100 µM (inactive) | > 100 µM (inactive) | > 100 µM (inactive) | > 100 µM (inactive) | – | > 100 µM (inactive) | – | > 100 µM (inactive) | > 100 µM (inactive) | – | > 100 µM (inactive) | > 100 µM (inactive) | > 100 µM (inactive) | – | > 100 µM (inactive) | > 100 µM (inactive) | – | – | – | –
COC(CN1C=C(Sc2ccccc2)CC1)OC | 38.8 µM (inactive) | 15.6 µM (inactive) | 23.7 µM (inactive) | 47.3 µM (inactive) | 41.4 µM (inactive) | 23.8 µM (inactive) | 49.2 µM (inactive) | 20.8 µM (inactive) | 21.7 µM (inactive) | 53.2 µM (inactive) | 37.8 µM (inactive) | 43.3 µM (inactive) | – | 20.2 µM (inactive) | 29.7 µM (inactive) | 30.8 µM (inactive) | – | – | – | –
CCc1cccc(C(C)C)c1NC(=O)C(=O)C1C(=O)NC(=O)NC1=O | > 100 µM (inactive) | > 100 µM (inactive) | > 100 µM (inactive) | > 100 µM (inactive) | > 100 µM (inactive) | > 100 µM (inactive) | > 100 µM (inactive) | > 100 µM (inactive) | > 100 µM (inactive) | > 100 µM (inactive) | > 100 µM (inactive) | > 100 µM (inactive) | > 100 µM (inactive) | > 100 µM (inactive) | > 100 µM (inactive) | > 100 µM (inactive) | – | – | – | –
CCOC(OC1=C(C#N)CCC1)C(C)[Se]c1ccccc1 (configuration not stated) | 45.4 µM (inactive) | 21 µM (inactive) | 12.9 µM (inactive) | > 100 µM (inactive) | 59.7 µM (inactive) | 92.9 µM (inactive) | 39.8 µM (inactive) | 18 µM (inactive) | 23.3 µM (inactive) | 25.8 µM (inactive) | 48.1 µM (inactive) | 30.5 µM (inactive) | 6.41 µM (inactive) | 18.1 µM (inactive) | 19.8 µM (inactive) | 67.8 µM (inactive) | – | – | – | –
Cc1ccc(-n2c(=S)[nH]c3ccc(Br)cc3c2=O)cc1 | > 100 µM (inactive) | > 100 µM (inactive) | > 100 µM (inactive) | > 100 µM (inactive) | – | > 100 µM (inactive) | > 100 µM (inactive) | > 100 µM (inactive) | > 100 µM (inactive) | > 100 µM (inactive) | > 100 µM (inactive) | > 100 µM (inactive) | > 100 µM (inactive) | > 100 µM (inactive) | > 100 µM (inactive) | > 100 µM (inactive) | – | – | – | –
CC1CC(=O)C(C(O)CC2CC(=O)N(c3ccccc3)C(=O)C2)C(C)C1 (configuration not stated) | > 100 µM (inactive) | > 100 µM (inactive) | > 100 µM (inactive) | > 100 µM (inactive) | > 100 µM (inactive) | > 100 µM (inactive) | > 100 µM (inactive) | > 100 µM (inactive) | > 100 µM (inactive) | > 100 µM (inactive) | > 100 µM (inactive) | > 100 µM (inactive) | > 100 µM (inactive) | > 100 µM (inactive) | > 100 µM (inactive) | > 100 µM (inactive) | – | – | – | –
c1ccc2c(c1)CCC/C2=N\OCC1CO1 (configuration not stated) | > 100 µM (inactive) | 28.4 µM (inactive) | 80 µM (inactive) | > 100 µM (inactive) | 36.1 µM (inactive) | > 100 µM (inactive) | > 100 µM (inactive) | 31.8 µM (inactive) | 55.1 µM (inactive) | > 100 µM (inactive) | > 100 µM (inactive) | > 100 µM (inactive) | > 100 µM (inactive) | > 100 µM (inactive) | 52.4 µM (inactive) | > 100 µM (inactive) | – | – | – | –
COC(=O)C(Cc1cc(OC)c(OC)c(OC)c1)c1ccc(OC)cc1 (configuration not stated) | > 100 µM (inactive) | 95.5 µM (inactive) | – | > 100 µM (inactive) | > 100 µM (inactive) | > 100 µM (inactive) | 44.7 µM (inactive) | > 100 µM (inactive) | 44.7 µM (inactive) | > 100 µM (inactive) | > 100 µM (inactive) | > 100 µM (inactive) | > 100 µM (inactive) | 95.7 µM (inactive) | > 100 µM (inactive) | > 100 µM (inactive) | – | – | – | –
CC(NC(=O)C(N)Cc1ccccc1)C(=O)NC(Cc1ccc(O)cc1)C(=O)NC(Cc1c[nH]c2ccccc12)C(=O)NC(CCCCN)C(=O)NC(C(=O)NC(C)C(=O)NC(Cc1ccc2ccccc2c1)C(N)=O)C(C)C (configuration not stated) (H-FAYWKVA[2Nal]-NH2; configuration not given here) | 27.1 µM (inactive) | > 12.5 µM (inactive) | > 12.5 µM (inactive) | > 12.5 µM (inactive) | > 12.5 µM (inactive) | > 12.5 µM (inactive) | > 12.5 µM (inactive) | > 12.5 µM (inactive) | > 12.5 µM (inactive) | > 12.5 µM (inactive) | 24.6 µM (inactive) | > 12.5 µM (inactive) | > 12.5 µM (inactive) | > 12.5 µM (inactive) | > 12.5 µM (inactive) | > 12.5 µM (inactive) | > 12.5 µM (inactive) | > 12.5 µM (inactive) | > 12.5 µM (inactive) | –
